Target: T1, c-KIT VVDV kinase (Homo sapiens, UniProt P10721, D816V/DEL559-560)
T1 construct: This construct contains residues T544-V976 of cKit; GST (N); TEV cleavage site (internal); purchased deCODE Biostructures
Assay: cKIT-VVDV kinase Assay
Type: biochemical
Conditions: enzymatic assay; V559+V560 deletions and D816V mutation
Protocol: In this assay, the oxidation of NADH (measured by decrease in absorbance at 340 nm) was continuously monitored spectrophotometrically. […] The inhibition reaction was started by mixing serial diluted test compound with the above reaction mixture. The absorption at 340 nm was monitored continuously for 5 hours at 30 °C on Synergy 2 plate reader (BioTech). […] The protein construct was prepared by deCODE Biostructures using procedures known in the art. […] This construct is identical to Seq ID no.

T1 sequence (P10721 with tags, fused parts or gaps DEL559-560/D816V): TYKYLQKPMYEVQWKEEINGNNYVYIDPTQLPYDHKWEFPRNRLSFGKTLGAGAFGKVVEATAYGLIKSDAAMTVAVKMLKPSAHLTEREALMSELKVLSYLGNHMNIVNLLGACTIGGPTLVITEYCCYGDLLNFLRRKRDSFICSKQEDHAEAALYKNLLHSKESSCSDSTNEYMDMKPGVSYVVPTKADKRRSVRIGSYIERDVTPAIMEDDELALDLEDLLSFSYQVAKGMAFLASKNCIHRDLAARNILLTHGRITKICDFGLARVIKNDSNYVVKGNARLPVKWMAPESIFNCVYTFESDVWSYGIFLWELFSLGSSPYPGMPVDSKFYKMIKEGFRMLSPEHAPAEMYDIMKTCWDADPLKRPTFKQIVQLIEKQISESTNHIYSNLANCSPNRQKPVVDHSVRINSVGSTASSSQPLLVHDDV

IC50	SMILES
< 10 nM	CCn1c(=O)c(-c2cc(NC(=O)Nc3cccc(F)c3F)c(F)cc2Cl)cc2cnc(NC)cc21 [Example 4, 1-(4-chloro-5-(1-ethyl-7-(methylamino)-2-oxo-1,2-dihydro-1,6-naphthyridin-3-yl)-2-fluorophenyl)-3-(2,3-difluorophenyl)urea]
< 10 nM	CCn1c(=O)c(-c2cc(NC(=O)Nc3cccc4ccccc34)c(F)cc2Cl)cc2cnc(NC)cc21 [Example 6, 1-(4-chloro-5-(1-ethyl-7-(methylamino)-2-oxo-1,2-dihydro-1,6-naphthyridin-3-yl)-2-fluorophenyl)-3-(naphthalen-1-yl)urea]
< 10 nM	CCn1c(=O)c(-c2cc(NC(=O)Nc3cccc(F)c3)c(F)cc2Cl)cc2cnc(N)cc21 [Example 20, 1-(5-(7-amino-1-ethyl-2-oxo-1,2-dihydro-1,6-naphthyridin-3-yl)-4-chloro-2-fluorophenyl)-3-(3-fluorophenyl)urea]
< 10 nM	CNc1cc2c(cn1)cc(-c1cc(NC(=O)Nc3ccccc3)c(F)cc1Cl)c(=O)n2C(C)C [Example 22, 1-(4-chloro-2-fluoro-5-(1-isopropyl-7-(methylamino)-2-oxo-1,2-dihydro-1,6-naphthyridin-3-yl)phenyl)-3-phenylurea]
< 10 nM	CCn1c(=O)c(-c2cc(NC(=O)Nc3cccc(F)c3)c(F)cc2Cl)cc2cnc(NC)cc21 [Example 24, 1-[4-chloro-5-(1-ethyl-7-methylamino-2-oxo-1,2-dihydro-[1,6]naphthyridin-3-yl)-2-fluoro-phenyl]-3-(3-fluoro-phenyl)-urea]
< 10 nM	CCn1c(=O)c(-c2cc(NC(=O)Nc3ccccc3F)c(F)cc2Cl)cc2cnc(NC)cc21 [Example 25, 1-[4-chloro-5-(1-ethyl-7-methylamino-2-oxo-1,2-dihydro-[1,6]naphthyridin-3-yl)-2-fluoro-phenyl]-3-(2-fluoro-phenyl)-urea]
10 to 100 nM	CCn1c(=O)c(-c2cc(NC(=O)Nc3cccc(F)c3)c(F)cc2Cl)cc2cnc(NCCOC)cc21 [Example 28, 1-(4-chloro-5-(1-ethyl-7-(2-methoxyethylamino)-2-oxo-1,2-dihydro-1,6-naphthyridin-3-yl)-2-fluorophenyl)-3-(3-fluorophenyl)urea]
100 to 1000 nM	CCn1c(=O)c(-c2cc(NC(=O)Nc3cccc(F)c3)c(F)cc2Br)cc2cnc(NC)cc21 [Example 50, 1-(4-bromo-5-(1-ethyl-7-(methylamino)-2-oxo-1,2-dihydro-1,6-naphthyridin-3-yl)-2-fluorophenyl)-3-(3-fluorophenyl)urea]
100 to 1000 nM	CCn1c(=O)c(-c2cc(NC(=O)Nc3ccccc3)c(F)cc2Br)cc2cnc(NCCOC)cc21 [Example 51, 1-(4-bromo-5-(1-ethyl-7-(2-methoxyethylamino)-2-oxo-1,2-dihydro-1,6-naphthyridin-3-yl)-2-fluorophenyl)-3-phenylurea]
< 10 nM	CCn1c(=O)c(-c2cc(NC(=O)Nc3ccccc3)c(F)cc2Cl)cc2cnc(NC(C)=O)cc21 [Example 54, 1-(5-(7-acetamido-1-ethyl-2-oxo-1,2-dihydro-1,6-naphthyridin-3-yl)-4-chloro-2-fluorophenyl)-3-phenylurea]
10 to 100 nM	CCn1c(=O)c(-c2cc(NC(=O)Nc3cc(F)cc(F)c3)c(F)cc2Cl)cc2cnc(NC)cc21 [Example 55, 1-(4-chloro-5-(1-ethyl-7-(methylamino)-2-oxo-1,2-dihydro-1,6-naphthyridin-3-yl)-2-fluorophenyl)-3-(3,5-difluorophenyl)urea]
10 to 100 nM	CCn1c(=O)c(-c2cc(NC(=O)Nc3cc(F)cc(F)c3)c(F)cc2C)cc2cnc(NC)cc21 [Example 60, 1-(3,5-difluorophenyl)-3-(5-(1-ethyl-7-(methylamino)-2-oxo-1,2-dihydro-1,6-naphthyridin-3-yl)-2-fluoro-4-methylphenyl)urea]
< 10 nM	CCn1c(=O)c(-c2cc(NC(=O)Nc3cc(F)ccc3F)c(F)cc2C)cc2cnc(NC)cc21 [Example 61, 1-(2,5-difluorophenyl)-3-(5-(1-ethyl-7-(methylamino)-2-oxo-1,2-dihydro-1,6-naphthyridin-3-yl)-2-fluoro-4-methylphenyl)urea]

From EP3722296B1, “DIHYDRONAPHTHYRIDINES AND RELATED COMPOUNDS USEFUL AS KINASE INHIBITORS FOR THE TREATMENT OF PROLIFERATIVE DISEASES” (Deciphera Pharmaceuticals, LLC, priority 2012, dated 2013)
